Results as given in PubChem BioAssay AID2044 (Broad Institute, 2009).
Results filed as inconclusive are left out.

System: T. cruzi beta-gal in NIH3T3, GalScreen luminescence, 90 h
Assay: Trypanosoma cruzi growth suppression in host cells – NIH3T3 host cells, beta-gal luminescence, confirmation (AID 2044)

## C#CCOCCOCCOCCNc1nc(N2CCN(C(=O)CCCCCCCCCCNC(=O)Cn3cc(C[C@@H](C)O)nn3)CC2)nc(N2CCN(C(=O)CCCCCCCCCCNC(=O)[C@H](CCCN=C(N)N)n3cc(C[C@@H](C)CC)nn3)CC2)n1
  EC50: 967 nM
